According to patent US20260152468A1, “NOVEL CERAMIDE, PREPARATION METHOD THEREFOR, AND USE THEREOF” (SHENZHEN DIKEMAN BIOTECHNOLOGY CO., LTD., priority 2022, published 2026):

Assays:
[1] = test system: AQP3 (aquaporin 3) expression in HaCat cells; experiment: Moisturizing efficacy by AQP3 cell assay; format: cell-based, human; conditions: 2.5 mmol/L
Description: Aquaporin 3 (AQP3) is a transporter factor responsible for transport of water, glycerol and urea on cell membrane, which is mainly expressed in keratinocytes and skin fibroblasts. AQP3 is not only involved in skin hydration and barrier function, but also plays an important role in skin damage, repair and healing, and is an important guarantee for maintenance of normal skin morphology and function.
The HaCat cells were seeded in a 96-well plate at a density of 1×10^4 cells/well and placed in an incubator overnight to allow cell adhesion. After 24 hours of incubation, the supernatant was discarded, and 100 μL of samples (i.e., the product obtained in Example 1) at different concentrations diluted with DMEM medium and DMEM medium free of the samples as a negative control group were added into the plate, each group in triplicate, followed by incubating under an atmosphere of 5% CO2 expressed by mass fraction at 37° C. At 2 hours after administration, […] LPS was added into both lipopolysaccharide model groups and experimental groups and then co-incubated for 24 hours. After completing the reaction, 50 μL of the cell supernatant was taken and detected for the AQP3 gene expression in the cells using a AQP3 assay kit.

[2] = test system: interleukin-6 (IL-6) cytokine expression in B16 murine melanoma cells; experiment: Anti-inflammatory repair efficacy, LPS-induced cell assay (IL-6 ELISA kit); format: cell-based; conditions: 1 mmol/L
Description: B16 murine melanoma cells were seeded in a 96-well plate at a cell density of 1×10^4 cells/well and placed in an incubator overnight to allow cell adhesion. After 24 hours of incubation, the supernatant was discarded, and 100 μL of samples (i.e., the product obtained in Example 1) at different concentrations diluted with DMEM medium and DMEM culture medium free of the samples as a negative control group were added into the cells, each group in triplicate, followed by incubating under an atmosphere of 5% CO2 expressed by mass fraction at 37° C. At 2 hours after administration, 10 μg/mL LPS was added into both lipopolysaccharide model groups and experimental groups and then co-incubated for 24 hours. After the reaction, 50 μL of the cell supernatant was taken and detected for IL-6 gene expression using a IL-6 ELISA kit.

[3] = test system: human keratinocytes (HaCaT) cells; experiment: Cell proliferation and viability by MTT assay; format: cell-based
Description: Cell proliferation and viability as detected by methylthiazolyldiphenyl-tetrazoliun bromide (MTT) assay: human keratinocytes (HaCaT) cells were seed in a 96-well plate at a cell density of 1×10^4 cells/well and placed in an incubator overnight. After 24 hours of incubation, the supernatant was discarded and 100 μL of culture medium containing samples (i.e., the product obtained in Example 1) at different concentrations or blank control (culture medium only) was added into the cells, and incubated for additional 24 hours, followed by removing the culture medium, adding 100 μL of MTT to each well, measuring the absorbance at 450 nm, and calculating the cell viability as: Cell viability=Adosing/Ablank×100%.

Substance	increase of expression level of AQP3, comparison (FIG. 8) [1]	inhibition of expression of IL-6 inflammatory factors, comparison (FIG. 5) [2]	abilities of cell healing and tissue-repairing (cell proliferation and viability assay, FIGS. 1-3) [3]
ceramide 3	effectively increase the expression level of AQP3	effectively inhibit the expression of IL-6 inflammatory factors	–
ceramide 3B	effectively increase the expression level of AQP3	effectively inhibit the expression of IL-6 inflammatory factors	relatively good abilities of cell healing and tissue-repairing
